Test results reported in US20230233690A1, “ANDROGEN RECEPTOR PROTEIN DEGRADERS” (THE REGENTS OF THE UNIVERSITY OF MICHIGAN, priority 2020, published 2023).

Molecular target: T1, AR protein (Homo sapiens, UniProt P10275)
T1 construct: endogenous in cells; host or cells: VCaP
T1 sequence (P10275 1-920): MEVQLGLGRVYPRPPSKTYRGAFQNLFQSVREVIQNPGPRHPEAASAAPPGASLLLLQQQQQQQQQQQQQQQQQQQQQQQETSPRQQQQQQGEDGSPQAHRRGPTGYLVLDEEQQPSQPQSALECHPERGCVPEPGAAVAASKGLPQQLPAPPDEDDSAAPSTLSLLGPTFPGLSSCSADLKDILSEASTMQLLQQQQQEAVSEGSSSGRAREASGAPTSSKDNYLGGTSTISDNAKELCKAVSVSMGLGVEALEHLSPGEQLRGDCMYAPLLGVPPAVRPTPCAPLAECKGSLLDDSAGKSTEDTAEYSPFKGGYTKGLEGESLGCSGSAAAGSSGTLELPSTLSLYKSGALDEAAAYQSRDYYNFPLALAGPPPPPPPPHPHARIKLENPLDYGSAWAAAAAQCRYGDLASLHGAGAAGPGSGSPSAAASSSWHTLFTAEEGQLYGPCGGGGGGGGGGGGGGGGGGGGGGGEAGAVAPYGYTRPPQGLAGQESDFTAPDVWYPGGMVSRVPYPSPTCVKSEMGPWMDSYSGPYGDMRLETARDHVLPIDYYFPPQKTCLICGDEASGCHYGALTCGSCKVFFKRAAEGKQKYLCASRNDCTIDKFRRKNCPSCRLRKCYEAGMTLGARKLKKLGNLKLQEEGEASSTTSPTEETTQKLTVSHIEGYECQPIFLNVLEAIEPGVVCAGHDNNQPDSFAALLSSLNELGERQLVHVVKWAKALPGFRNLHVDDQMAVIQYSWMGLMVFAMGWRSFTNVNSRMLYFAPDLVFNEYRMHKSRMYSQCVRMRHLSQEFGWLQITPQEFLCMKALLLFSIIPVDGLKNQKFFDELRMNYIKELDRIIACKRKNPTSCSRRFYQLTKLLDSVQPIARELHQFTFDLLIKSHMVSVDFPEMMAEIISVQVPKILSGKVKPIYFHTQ
Assay: Western blotting of AR protein degradation in VCaP cells
Assay type: cell-based
Details: for AR protein degradation VCap 10 nM / AR protein degradation VCap 100 nM: 24 hr treatment
Protocol: The treated cells were lysed with RIPA buffer. […] GAPDH was used as a loading control.
Bands were quantified with ImageJ software. The relative numbers of each band obtained from normalization with its corresponding GAPDH level were compared with Prism 8 software. The DC50 values were produced from Prism 8, and the DC90 values were calculated with an equation=Bottom+(Top−Bottom)/(1+10^((Log EC50−X)*HillSlope) based on DC50 and Hillslope values.

Structure (SMILES)	AR protein degradation VCap 10 nM	AR protein degradation VCap 100 nM	other results
N#Cc1ccc(O[C@H]2CC[C@H](Nc3ccc(C(=O)N4CCN(C5CCN(c6ccc7c(c6)C(=O)N(C6CCC(=O)NC6=O)C7=O)CC5)CC4)cc3)CC2)cc1Cl (some centres unmarked) [Cpd. No. 12]	C (>10% degradation but <50% (24 hr treatment))	A (>90% degradation (24 hr treatment))	–
N#Cc1ccc(O[C@H]2CC[C@H](Nc3ccc(C(=O)N4CCN(C5CN(c6ccc7c(c6)C(=O)N(C6CCC(=O)NC6=O)C7=O)C5)CC4)cc3)CC2)cc1Cl (some centres unmarked) [Cpd. No. 17, 2-chloro-4-(((1r,4r)-4-((4-(4-(1-(2-(2,6-dioxopiperidin-3-yl)-1,3-dioxoisoindolin-5-yl)azetidin-3-yl)piperazinecarbonyl)phenyl)amino)cyclohexyl)oxy)benzonitrile]	B (>50% degradation but <90% (24 hr treatment))	B (>50% degradation but <90% (24 hr treatment))	–
N#Cc1ccc(O[C@H]2CC[C@H](NC(=O)c3ccc(N4CCN(C5CCN(c6ccc7c(c6)C(=O)N(C6CCC(=O)NC6=O)C7=O)CC5)CC4)cc3)CC2)cc1Cl (some centres unmarked) [Cpd. No. 21, N-((1r,4r)-4-(3-chloro-4-cyanophenoxy)cyclohexyl)-4-(4-(1-(2-(2,6-dioxopiperidin-3-yl)-1,3-dioxoisoindolin-5-yl)piperidin-4-yl)piperazin-1-yl)benzamide]	A (>90% degradation (24 hr treatment))	A (>90% degradation (24 hr treatment))	–
N#Cc1ccc(O[C@H]2CC[C@H](NC(=O)c3ccc(N4CCN(C5CN(c6ccc7c(c6)C(=O)N(C6CCC(=O)NC6=O)C7=O)C5)CC4)cc3)CC2)cc1Cl (some centres unmarked) [Cpd. No. 22]	A (>90% degradation (24 hr treatment))	A (>90% degradation (24 hr treatment))	–
C[C@H]1C[C@@H](NC(=O)c2ccc(N3CCN(CC4CCN(c5ccc6c(c5)C(=O)N(C5CCC(=O)NC5=O)C6=O)CC4)CC3)cc2)CC[C@@H]1Oc1ccc(C#N)c(Cl)c1 (some centres unmarked) [Cpd. No. 23]	A (>90% degradation (24 hr treatment))	A (>90% degradation (24 hr treatment))	–
N#Cc1ccc(N[C@H]2CC[C@H](NC(=O)c3ccc(N4CCN(C5CN(c6ccc7c(c6)C(=O)N(C6CCC(=O)NC6=O)C7=O)C5)CC4)cc3)CC2)cc1Cl (some centres unmarked) [Cpd. No. 28, N-((1r,4r)-4-((3-chloro-4-cyanophenyl)amino)cyclohexyl)-4-(4-(1-(2-(2,6-dioxopiperidin-3-yl)-1,3-dioxoisoindolin-5-yl)azetidin-3-yl)piperazin-1-yl)benzamide]	A (>90% degradation (24 hr treatment))	A (>90% degradation (24 hr treatment))	–
CN(c1ccc(C#N)c(Cl)c1)[C@H]1CC[C@H](NC(=O)c2ccc(N3CCN(C4CN(c5ccc6c(c5)C(=O)N(C5CCC(=O)NC5=O)C6=O)C4)CC3)cc2)CC1 (some centres unmarked) [Cpd. No. 31, N-((1r,4r)-4-((3-chloro-4-cyanophenyl)(methyl)amino)cyclohexyl)-4-(4-(1-(2-(2,6-dioxopiperidin-3-yl)-1,3-dioxoisoindolin-5-yl)azetidin-3-yl)piperazin-1-yl)benzamide]	A (>90% degradation (24 hr treatment))	A (>90% degradation (24 hr treatment))	–
N#Cc1ccc(O[C@H]2CC[C@H](NC(=O)c3ccc(N4CCC5(CC4)CCN(C4CCN(c6ccc7c(c6)C(=O)N(C6CCC(=O)NC6=O)C7=O)CC4)CC5)cc3)CC2)cc1Cl (some centres unmarked) [compound 7]	B (>50% degradation but <90% (24 hr treatment))	C (>10% degradation but <50% (24 hr treatment))	–
N#Cc1ccc(O[C@H]2CC[C@H](NC(=O)c3ccc4c(c3)CN(CC3CCN(c5ccc6c(c5)C(=O)N(C5CCC(=O)NC5=O)C6=O)CC3)C4)CC2)cc1Cl (some centres unmarked) [compound 8]	–	A (>90% degradation (24 hr treatment))	–
N#Cc1ccc(O[C@H]2CC[C@H](NC(=O)c3ccc4c(c3)CCN(CC3CCN(c5ccc6c(c5)C(=O)N(C5CCC(=O)NC5=O)C6=O)CC3)C4)CC2)cc1Cl (some centres unmarked) [compound 9]	–	B (>50% degradation but <90% (24 hr treatment))	–
N#Cc1ccc(O[C@H]2CC[C@H](Nc3ccc(C(=O)N4CCN(CC5CCN(c6ccc7c(c6)C(=O)N(C6CCC(=O)NC6=O)C7=O)CC5)CC4)cc3)CC2)cc1Cl (some centres unmarked) [compound 13]	C (>10% degradation but <50% (24 hr treatment))	B (>50% degradation but <90% (24 hr treatment))	–
CN(c1ccc(C(=O)N2CCN(C3CCN(c4ccc5c(c4)C(=O)N(C4CCC(=O)NC4=O)C5=O)CC3)CC2)cc1)[C@H]1CC[C@H](Oc2ccc(C#N)c(Cl)c2)CC1 (some centres unmarked) [compound 14]	–	C (>10% degradation but <50% (24 hr treatment))	–
CN(c1ccc(C(=O)N2CCN(CC3CCN(c4ccc5c(c4)C(=O)N(C4CCC(=O)NC4=O)C5=O)CC3)CC2)cc1)[C@H]1CC[C@H](Oc2ccc(C#N)c(Cl)c2)CC1 (some centres unmarked) [compound 15]	–	B (>50% degradation but <90% (24 hr treatment))	–
C[C@H]1C[C@H](NC(=O)c2ccc(N3CCN(CC4CCN(c5ccc6c(c5)C(=O)N(C5CCC(=O)NC5=O)C6=O)CC4)CC3)cc2)CC[C@H]1Oc1ccc(C#N)c(Cl)c1 (some centres unmarked) [compound 24]	A (>90% degradation (24 hr treatment))	A (>90% degradation (24 hr treatment))	–
C[C@H]1C[C@@H](NC(=O)c2ccc(N3CCN(C4CCN(c5ccc6c(c5)C(=O)N(C5CCC(=O)NC5=O)C6=O)CC4)CC3)cc2)CC[C@@H]1Oc1ccc(C#N)c(Cl)c1 (some centres unmarked) [compound 25]	A (>90% degradation (24 hr treatment))	A (>90% degradation (24 hr treatment))	–
C[C@H]1C[C@@H](NC(=O)c2ccc(N3CCN(C4CN(c5ccc6c(c5)C(=O)N(C5CCC(=O)NC5=O)C6=O)C4)CC3)cc2)CC[C@@H]1Oc1ccc(C#N)c(Cl)c1 (some centres unmarked) [compound 26]	A (>90% degradation (24 hr treatment))	A (>90% degradation (24 hr treatment))	–
N#Cc1ccc(N[C@H]2CC[C@H](NC(=O)c3ccc(N4CCN(CC5CCN(c6ccc7c(c6)C(=O)N(C6CCC(=O)NC6=O)C7=O)CC5)CC4)cc3)CC2)cc1Cl (some centres unmarked) [compound 27]	A (>90% degradation (24 hr treatment))	A (>90% degradation (24 hr treatment))	–
CN(c1ccc(C#N)c(Cl)c1)[C@H]1CC[C@H](NC(=O)c2ccc(N3CCN(CC4CCN(c5ccc6c(c5)C(=O)N(C5CCC(=O)NC5=O)C6=O)CC4)CC3)cc2)CC1 (some centres unmarked) [compound 29]	A (>90% degradation (24 hr treatment))	A (>90% degradation (24 hr treatment))	–
CN(c1ccc(C#N)c(Cl)c1)[C@H]1CC[C@H](NC(=O)c2ccc(N3CCN(C4CCN(c5ccc6c(c5)C(=O)N(C5CCC(=O)NC5=O)C6=O)CC4)CC3)cc2)CC1 (some centres unmarked) [compound 30]	A (>90% degradation (24 hr treatment))	A (>90% degradation (24 hr treatment))	–
CN(c1ccc(C#N)c(Cl)c1)C1CCC(NC(=O)c2ccc(C#CC3CCN(C4CCN(c5ccc6c(c5)C(=O)N(C5CCC(=O)NC5=O)C6=O)CC4)CC3)cc2)CC1 (centres unmarked) [compound 32]	A (>90% degradation (24 hr treatment))	A (>90% degradation (24 hr treatment))	–
N#Cc1ccc(O[C@H]2CC[C@H](NC(=O)c3ccc(NCCCCNc4ccc5c(c4)C(=O)N(C4CCC(=O)NC4=O)C5=O)cc3)CC2)cc1Cl (some centres unmarked) [compound 210, N-((1r,4r)-4-(3-chloro-4-cyanophenoxy)cyclohexyl)-4-((4-((2-(2,6-dioxopiperidin-3-yl)-1,3-dioxoisoindolin-5-yl)amino)butyl)amino)benzamide]	–	–	% AR protein degradation in VCaP Cells (0.001 μM): 43%; % AR protein degradation in VCaP Cells (0.01 μM): 70%; % AR protein degradation in VCaP Cells (0.1 μM): 55%; % AR protein degradation in VCaP Cells (1 μM): 38%
N#Cc1ccc(O[C@H]2CC[C@H](NC(=O)c3ccc(NCCCCCNc4ccc5c(c4)C(=O)N(C4CCC(=O)NC4=O)C5=O)cc3)CC2)cc1Cl (some centres unmarked) [compound 211, N-((1r,4r)-4-(3-chloro-4-cyanophenoxy)cyclohexyl)-4-((5-((2-(2,6-dioxopiperidin-3-yl)-1,3-dioxoisoindolin-5-yl)amino)pentyl)amino)benzamide]	–	–	% AR protein degradation in VCaP Cells (0.001 μM): 59%; % AR protein degradation in VCaP Cells (0.01 μM): 82%; % AR protein degradation in VCaP Cells (0.1 μM): 82%; % AR protein degradation in VCaP Cells (1 μM): 79%
